The text below walks through data of patent US8742167B2, “Therapeutic formulations based on asiatic acid and selected salts thereof” (Shanghai Institute of Pharmaceutical Industry, priority 2008, dated 2014).

“And” between values parts separate entries of the source, which are not always exact repeats. Identical values can stand only once. “Also recorded” adds a separate entry of the source. Counter-ions that a name gives are not always drawn. Like-named read-outs stand apart in the source and are kept apart here. Marks after values point to notes of the source that are not given here.

The test system of one data set is TNF-α. The data set is described as follows: Serological test (ELISA kit) of TNF-α in rats of bleomycin-induced pulmonary fibrosis. Conditions: serum; for TNF-α (2nd day) X ± SD: dosing from 2nd day; for TNF-α (7th day) X ± SD: dosing from 7th day. It is filed as in vivo, SD rats. As for the experimental part:
TNF-α Kit, Human 96T ELISA kit imported by Shanghai Jingmei
(§1) Male SD rats, body weight 250-300 g. The animals were anesthetized with 3% seconal, laid flat and fixed onto the operating table. The necks of the animals were disinfected with alcohol and cut to expose tracheae. A needle was inserted via the space between tracheal rings centripetally, and 5 mg/kg of bleomycin was injected. The rats were kept upright and rotated, in order to keep the solution uniformly distributed in the lungs. Then the incisions were sutured.
(§2) After the rats regained consciousness, they were randomly grouped. The animals were divided into (i) a group receiving administration on the next day after establishing the model and (ii) a group receiving administration at 7 days after the model was established. Included were 27, 9, and 3 mg/kg p.o.×28 d asiatic acid groups, 0.6 mg/kg p.o.×28 d dexamethasone group, 36 mg/kg p.o.×28 d asiaticoside group, model group, and blank group. Normal saline was administered for the model and blank groups. On the 28th day after asiatic acid and asiaticoside administration, survival and weight ratio of lungs were measured; pathological examination and serological examination were performed.
(§3) Serum samples were prepared according to a standard protocol (centrifuged 3000 rpm, 10 minutes after collection) and were stored at −20° C. Testing was conducted in accordance with kit instructions.
Background: An ELISA detects its analyte on a solid surface through an enzyme-linked reagent.

Data set [1] has as its system bleomycin-induced pulmonary fibrosis in rats. Description: Mortality during experiment days 7-28, bleomycin-induced pulmonary fibrosis in rats. It is filed as in vivo, SD rats. As for the experimental part: as §1, §2
For the next data set, the system named is Hydroxyproline. Description: Measured value of hydroxyproline in experiment of asiatic acid antagonizing fibrosis. Format: in vivo, SD rats. Conditions: for Measured Value of Hydroxyproline (on 2nd day), X / Measured Value of Hydroxyproline (on 7th day), X: group mean. Also noted: Measured Value of Hydroxyproline (on 2nd day), single animals / Measured Value of Hydroxyproline (on 2nd day), X / Measured Value of Hydroxyproline (on 7th day), single animals / Measured Value of Hydroxyproline (on 7th day), X: unit not given here. As for the experimental part:
as §1, §2

Data set [2] concerns bleomycin-induced pulmonary fibrosis in rats. The data set is described as follows: Lung weight index of bleomycin-induced pulmonary fibrosis in rats. Format: in vivo, SD rats. Conditions: for lung weight ratio (%): (lung weight/body weight)x100%. As for the experimental part:
as §1, §2
Effect of on lung weight index of bleomycin-induced pulmonary fibrosis in rats treated with asiatic acid Body weight and lung weight were measured after the rats were sacrificed. Lung weight ratio=(lung weight/body weight)×100%.

The subject of a further data set is TFG-β. The data set is described as follows: Serological test (ELISA kit) of TFG-β in rats of bleomycin-induced pulmonary fibrosis. Format: in vivo, SD rats. Conditions: serum; for TFG-β (2nd day) X ± SD: dosing from 2nd day; for TFG-β (7th day) X ± SD: dosing from 7th day. As for the experimental part:
TFG-β Kit, Human 96T ELISA kit imported by Shanghai Jingmei
as §1, §2, §3

The test system of the next data set is Type III collagen. The data set is described as follows: Type III collagen content, bleomycin rat model. Format: in vivo, SD rats. As for the experimental part: as §1, §2
Data set [3] is described as follows: Solubility in water and methanol (saturated solutions, HPLC). Format: physicochemical. The settings on record: for Solubility: single preparations (inj 1A-1C). As for the experimental part: Approximately 5 mg of asiatic acid were transferred into a 25 mL volumetric flask, and 1 mL, of methanol was added and mixed well, until the acid had dissolved in the methanol. The volumetric flask then was brought to volume with mobile phase and mixed well. [table] Saturated solutions obtained from starting material and salt in methanol and water were filtered and diluted accordingly with mobile phase. No dilution was performed for asiatic acid in water. Samples were prepared in triplicate except for the sodium salt prepared in methanol, for which two preparations were done.

Data set [4] concerns pulmonary fibrosis induced by bleomycin in rats. The data set is described as follows: Pathological analysis of lung (HE staining; collagen fiber and elastic fiber dual staining). Format: in vivo, SD rats. The settings on record: asiaticoside 36 mg/kg; administration on the next day after establishing model. As for the experimental part:
as §1, §2
The lung tissues were fixed in 10% formalin for 1 week. […] The thickness of sections was […]. Routine hematoxylin-eosin (HE) staining was performed. Dual special staining of collagen fibers and elastic fibers were conducted in order to detect the degree of fibrosis. The staining of the two groups of sections was observed and the results were as follows.

[5] abbreviates: dexamethasone (0.6 mg/kg), individual rats 1-6.
Setting [6] is: asiaticoside 36 mg/kg, individual rats 1-10.

For orientation: Solubility means the dissolved amount per volume that the medium holds.

In the case of `C[C@@H]1C[C@H]2[C@@H]3CCC4=CC(=O)C=C[C@]4(C)[C@@]3(F)[C@@H](O)C[C@]2(C)[C@@]1(O)C(=O)CO` [Dexamethasone, reference compound], in the data set on TNF-α (dexamethasone 0.6 mg/kg), the “TNF-α (2nd day) X ± SD” value amounted to 0.073 ± 0.006 OD value and the “TNF-α (7th day) X ± SD” value stood at 0.060 ± 0.006 OD value. In addition, the “remaining samples at the end of study” value in data set [1] (dexamethasone 0.6 mg/kg p.o. x 28 d, dosing started on 2nd day, 14 on day 7) is listed as 6. The same molecule had a number of deaths in data set [1] (dexamethasone 0.6 mg/kg p.o. x 28 d, dosing started on 2nd day, days 7-28) of 8. Besides, the number of deaths in data set [1] (dexamethasone 0.6 mg/kg p.o. x 28 d, dosing started on 7th day) was found to be 7. In addition, the “remaining samples at the end of study” value in data set [1] (dexamethasone 0.6 mg/kg p.o. x 28 d, dosing started on 7th day, 13 in the group) stood at 6. In the data set with Hydroxyproline (dexamethasone (0.6 mg/kg)), the “Measured Value of Hydroxyproline (on 2nd day), X” value came to 23.45 and the “Measured Value of Hydroxyproline (on 7th day), X” value is recorded as 27.35. In the data set with Hydroxyproline (setting [5]), the “Measured Value of Hydroxyproline (on 2nd day), single animals” value is 19.86 and 23.31 and 21.69 and 24.63 and 25.36 and 25.87; the “Measured Value of Hydroxyproline (on 7th day), single animals” value was 25.17 and 27.44 and 25.99 and 29.66 and 28.07 and 27.75. Besides, the “lung weight ratio (%)” value in data set [2] (dexamethasone 0.6 mg/kg, started 7 day after model established) is listed as 1.14%. Further, the “lung weight ratio (%)” value in data set [2] (dexamethasone 0.6 mg/kg, started from the second day) is listed as 1.31%. The “lung weight (g) X ± SD” value in data set [2] (dexamethasone 0.6 mg/kg, 28-day administration started 7 day after model established) worked out at 2.05 ± 0.40 g. Further, the “lung weight (g) X ± SD” value in data set [2] (dexamethasone 0.6 mg/kg, 28-day administration started from the second day) is reported as 2.06 ± 0.52 g. In the data set on TFG-β (dexamethasone 0.6 mg/kg), the “TFG-β (2nd day) X ± SD” value came to 0.751 ± 0.214 OD value and the “TFG-β (7th day) X ± SD” value is reported as 0.717 ± 0.197 OD value. The “Type III collagen content X ± SD” value in the data set with Type III collagen (Dex (0.6 mg/kg), treatment starting on Day 7) was found to be 0.518 ± 0.527.

Consider `C[C@H]1[C@H](C)CC[C@]2(C(=O)O)CC[C@]3(C)C(=CC[C@@H]4[C@@]5(C)C[C@@H](O)[C@H](O)[C@@](C)(CO)[C@@H]5CC[C@]43C)[C@H]12` [Asiatic acid-Na salt NaOH, asiatic acid sodium salt], for which the Solubility in data set [3] (MeOH, sodium salt) was 24080 µg/mL; in data set [3] (methanol, organic solvent or mixture, thermodynamic from solid, MeOH, read-out: Solubility), 25400 µg/mL; in data set [3] (water, thermodynamic from solid, water, read-out: Solubility), 6860 µg/mL; in data set [3] (water, sodium salt) it was 6360 µg/mL and 7320 µg/mL. Also, in data set [3] (water), the “times more soluble than asiatic acid” value is reported as roughly 228 times.

Regarding `C[C@H]1[C@H](C)CC[C@]2(C(=O)O[C@@H]3O[C@H](CO[C@@H]4O[C@H](CO)[C@@H](O[C@@H]5O[C@H](C)[C@H](O)[C@@H](O)[C@H]5O)[C@H](O)[C@H]4O)[C@@H](O)[C@H](O)[C@H]3O)CC[C@]3(C)C(=CC[C@@H]4[C@@]5(C)C[C@@H](O)[C@H](O)[C@@](C)(CO)[C@@H]5CC[C@]43C)[C@H]12` [Asiaticoside, asiaticoside], in the data set with TNF-α (asiaticoside 36 mg/kg), the “TNF-α (2nd day) X ± SD” value was 0.064 ± 0.013 OD value and the “TNF-α (7th day) X ± SD” value came out at 0.091 ± 0.027 OD value. Further, in data set [1] (asiaticoside 36 mg/kg p.o. x 28 d, dosing started on 2nd day, 14 on day 7), the “remaining samples at the end of study” value worked out at 12. The number of deaths in data set [1] (asiaticoside 36 mg/kg p.o. x 28 d, dosing started on 2nd day, days 7-28) was 2. This molecule had a number of deaths in data set [1] (asiaticoside 36 mg/kg p.o. x 28 d, dosing started on 7th day) of 2. The “remaining samples at the end of study” value in data set [1] (asiaticoside 36 mg/kg p.o. x 28 d, dosing started on 7th day, 13 in the group) is 11. In data set [1] (rats treated with bleomycin, treatment initiated one day or seven days after bleomycin), the “survival / bleomycin-induced death” value is “largely prevented bleomycin-induced death; also recorded: significantly enhance survival”. Also, in the data set on Hydroxyproline (asiaticoside 36 mg/kg), the “Measured Value of Hydroxyproline (on 2nd day), X” value was determined as 24.11 and the “Measured Value of Hydroxyproline (on 7th day), X” value turned out to be 26.57. In the data set on Hydroxyproline (setting [6]), the “Measured Value of Hydroxyproline (on 2nd day), single animals” value is 28.56 and 28.69 and 19.63 and 25.34 and 28.11 and 20.54 and 25.36 and 19.47 and 25.25 and 20.11; the “Measured Value of Hydroxyproline (on 7th day), single animals” value was 28.19 and 24.36 and 28.17 and 24.69 and 29.1 and 25.11 and 25.91 and 24.97 and 29.69 and 25.55. In the data set on Hydroxyproline (overall statement), the “serum levels of hydroxyproline” value is “significantly decrease bleomycin-induced fibrosis”. In data set [2] (asiaticoside 36 mg/kg, started 7 day after model established), the “lung weight ratio (%)” value is recorded as 0.80** %. In data set [2] (asiaticoside 36 mg/kg, started from the second day), the “lung weight ratio (%)” value is 0.84** %. Besides, in data set [2] (asiaticoside 36 mg/kg, 28-day administration started 7 day after model established), the “lung weight (g) X ± SD” value worked out at 2.59 ± 0.33 g. The “lung weight (g) X ± SD” value in data set [2] (asiaticoside 36 mg/kg, 28-day administration started from the second day) was found to be 2.62 ± 0.38 g. The “lung weight to body weight ratio” value in data set [2] (starting on 2nd or 7th day, compared with the model group) is recorded as “significantly decrease bleomycin-induced lung fibrosis”. Moreover, in the data set with TFG-β (asiaticoside 36 mg/kg), the “TFG-β (2nd day) X ± SD” value is listed as 0.670 ± 0.155 OD value and the “TFG-β (7th day) X ± SD” value amounted to 1.181 ± 0.364 OD value. The “lung pathology, HE staining” value in data set [4] is reported as “less serious than those of the model group”. Moreover, the “serum levels of type III collagen” value in the data set with Type III collagen (overall statement) is “significantly decrease bleomycin-induced fibrosis”.
